Laboratory results: patent US20230285514A1, “STAPLED LACTAM CO-AGONISTS OF THE GLUCAGON AND GLP-1 RECEPTORS” (Merck Sharp & Dohme LLC, priority 2019, published 2023)
*1 amine or outer side, *2 acyl side, *3 side chain or, on linkers, in order; H or OH if unused. Where a SMILES comes first, the peptide text is derived from it. Bridges are numbered along the chain shown (N, C = ends). Side-chain parts run from the residue outwards. [ ]: non-standard residue; d: D form. The star is where a group is joined. γGlu = O=C(O)[C@H](CCC(=O)[*:2])N[*:1]; Palmitoyl = CCCCCCCCCCCCCCCC(=O)*; Nle = CCCC[C@H](N)C(=O)O; Aib = CC(C)(N)C(=O)O

Assays:
[1] = molecular target: T1, human GCGR (Homo sapiens, UniProt P47871); assay: cAMP activity assay, cells expressing human GCGR; format: cell-based; conditions: ratio of human GCGR EC50 to human GLP1R EC50
T1 construct: expressed in transfected cells
Procedure: (§1) Activity of the peptides at the Glucagon receptor (GCGR) and GLP-1 receptor (GLP1R) was measured in a cAMP activity assay. Peptides were dissolved in 100% DMSO and serially diluted to generate 10 point titrations. The peptide solutions were then transferred into 384-well assay plates (150 nL/well). Assay ready frozen cells expressing human GLP1R or human GCGR were suspended in growth media consisting of DMEM medium (GIBCO), 10% FBS (GIBCO), 1×NEAA(GIBCO), 1×P/S (GIBCO), 10 ug/ml Blasticidin (GIBCO) and 200 μg/mL Hygromycin (GIBCO). […] The cell suspensions (15 μL) were then added to the assay plates containing the peptide solutions (30,000 cells/well for human GCGR; 10,000 cells/well for human GLP1R). […] Production of cAMP was determined using […] kits (DiscoverX) following manufacturer protocol. The plates were incubated for overnight at room temperature in the dark. Luminescence was measured using an EnVision Multilabel plate reader (Perkin Elmer). Native GLP-1 and Glucagon (Bachem) are used as control peptides.

[2] = molecular target: T2, human GLP1R (Homo sapiens, UniProt P43220); assay: cAMP activity assay, cells expressing human GLP1R; format: cell-based; conditions: cAMP production, 1 hour, table does not say whether with or without 20% human serum, read-out: GLPIR EC50 human
T2 construct: expressed in transfected cells
Procedure: as §1

T1 sequence (P47871 26-477): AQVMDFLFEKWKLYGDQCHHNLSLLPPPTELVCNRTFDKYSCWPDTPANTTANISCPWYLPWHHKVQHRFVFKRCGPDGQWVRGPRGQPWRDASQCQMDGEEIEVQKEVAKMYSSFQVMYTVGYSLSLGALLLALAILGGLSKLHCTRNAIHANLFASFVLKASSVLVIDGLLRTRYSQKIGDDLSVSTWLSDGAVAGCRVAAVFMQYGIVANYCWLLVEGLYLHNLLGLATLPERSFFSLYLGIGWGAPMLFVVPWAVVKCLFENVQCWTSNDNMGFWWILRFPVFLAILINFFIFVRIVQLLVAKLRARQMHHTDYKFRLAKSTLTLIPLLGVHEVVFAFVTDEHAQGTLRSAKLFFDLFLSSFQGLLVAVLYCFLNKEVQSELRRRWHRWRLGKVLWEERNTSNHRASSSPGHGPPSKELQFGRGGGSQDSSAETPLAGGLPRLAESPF
T2 sequence (P43220 24-463): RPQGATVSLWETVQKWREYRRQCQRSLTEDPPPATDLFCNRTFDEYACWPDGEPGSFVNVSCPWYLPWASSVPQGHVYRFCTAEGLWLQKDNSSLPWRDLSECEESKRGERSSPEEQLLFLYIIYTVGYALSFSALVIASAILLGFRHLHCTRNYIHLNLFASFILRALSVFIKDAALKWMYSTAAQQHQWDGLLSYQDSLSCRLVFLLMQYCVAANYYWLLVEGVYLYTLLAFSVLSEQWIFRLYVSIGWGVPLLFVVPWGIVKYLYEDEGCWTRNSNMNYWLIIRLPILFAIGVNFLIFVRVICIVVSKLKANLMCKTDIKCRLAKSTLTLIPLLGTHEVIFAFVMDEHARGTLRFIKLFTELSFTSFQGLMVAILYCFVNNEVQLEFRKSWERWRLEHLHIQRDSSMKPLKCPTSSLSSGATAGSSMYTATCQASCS

SMILES | hGCGR/hGLPIR (hTone) [1] | EC50 [2]
CCCCCCCCCCCCCCCC(=O)N[C@@H](CCC(=O)N[C@@H](CCC(=O)NCCCC[C@H](NC(=O)[C@H](CC(=O)O)NC(=O)[C@H](CO)NC(=O)[C@@H](NC(=O)[C@H](Cc1ccccc1)NC(=O)[C@@H](NC(=O)CNC(=O)[C@H](CCC(N)=O)NC(=O)C(C)(C)NC(=O)[C@@H](N)Cc1c[nH]cn1)[C@@H](C)O)[C@@H](C)O)C(=O)N[C@@H](CO)C(=O)N[C@@H](CCCCN)C(=O)N[C@@H](Cc1ccc(O)cc1)C(=O)N[C@@H](CC(C)C)C(=O)N[C@@H](CC(=O)O)C(=O)NC(C)(C)C(=O)N[C@H]1CCCCNC(=O)CC[C@@H](C(=O)N[C@@H](Cc2ccccc2)C(=O)N[C@H](C(=O)N[C@@H](CCC(N)=O)C(=O)N[C@@H](Cc2c[nH]c3ccccc23)C(=O)N[C@@H](CC(C)C)C(=O)N[C@@H](CCCC)C(=O)N[C@@H](CC(=O)O)C(=O)N[C@H](C(N)=O)[C@@H](C)O)C(C)C)NC(=O)[C@H](CCC(N)=O)NC(=O)[C@H](C)NC(=O)[C@H](C)NC1=O)C(=O)O)C(=O)O [SEQ ID NO: 16] (H-H[Aib]QGTFTSDK([γGlu-γGlu-Palmitoyl])SKYLD[Aib]KAAQEFVQWL[Nle]DT-NH2; lactam 17-21; N-terminus assumed) | 1.25 | 170 pM
CCCCCCCCCCCCCCCC(=O)N[C@@H](CCC(=O)N[C@@H](CCC(=O)NCCCC[C@H](NC(=O)[C@H](CC(=O)O)NC(=O)[C@H](CO)NC(=O)[C@@H](NC(=O)[C@H](Cc1ccccc1)NC(=O)[C@@H](NC(=O)CNC(=O)[C@H](CCC(N)=O)NC(=O)[C@@H](CO)NC(=O)[C@@H](N)Cc1c[nH]cn1)[C@@H](C)O)[C@@H](C)O)C(=O)N[C@@H](CO)C(=O)N[C@@H](CCCCN)C(=O)N[C@@H](Cc1ccc(O)cc1)C(=O)N[C@@H](CC(C)C)C(=O)N[C@@H](CC(=O)O)C(=O)N[C@@H](C)C(=O)N[C@@H](CCCNC(=N)N)C(=O)N[C@@H](C)C(=O)N[C@@H](C)C(=O)N[C@H]1CCCCNC(=O)CC[C@@H](C(=O)N[C@@H](Cc2c[nH]c3ccccc23)C(=O)N[C@@H](CC(C)C)C(=O)N[C@@H](CC(C)C)C(=O)N[C@@H](CC(=O)O)C(=O)N[C@H](C(N)=O)[C@@H](C)O)NC(=O)[C@H](C(C)C)NC(=O)[C@H](Cc2ccccc2)NC(=O)[C@H](CC(=O)O)NC1=O)C(=O)O)C(=O)O [SEQ ID NO: 11] | 0.6 | 170 pM
CCCCCCCCCCCCCCCC(=O)N[C@@H](CCC(=O)N[C@@H](CCC(=O)NCCCC[C@H](NC(=O)[C@H](CC(=O)O)NC(=O)[C@H](CO)NC(=O)[C@@H](NC(=O)[C@H](Cc1ccccc1)NC(=O)[C@@H](NC(=O)CNC(=O)[C@H](CCC(N)=O)NC(=O)C(C)(C)NC(=O)[C@@H](N)Cc1c[nH]cn1)[C@@H](C)O)[C@@H](C)O)C(=O)N[C@@H](CO)C(=O)N[C@@H](CCCCN)C(=O)N[C@@H](Cc1ccc(O)cc1)C(=O)N[C@@H](CC(C)C)C(=O)N[C@@H](CC(=O)O)C(=O)N[C@H]1CCCCNC(=O)CC[C@@H](C(=O)N[C@@H](CC(=O)O)C(=O)N[C@@H](Cc2ccccc2)C(=O)N[C@H](C(=O)N[C@@H](CCC(N)=O)C(=O)N[C@@H](Cc2c[nH]c3ccccc23)C(=O)N[C@@H](CC(C)C)C(=O)N[C@@H](CCCC)C(=O)N[C@@H](CC(=O)O)C(=O)N[C@H](C(N)=O)[C@@H](C)O)C(C)C)NC(=O)[C@H](C)NC(=O)[C@H](C)NC(=O)[C@H](CCCNC(=N)N)NC1=O)C(=O)O)C(=O)O [SEQ ID NO: 14] (H-H[Aib]QGTFTSDK([γGlu-γGlu-Palmitoyl])SKYLDKRAAEDFVQWL[Nle]DT-NH2; lactam 16-20; N-terminus assumed) | 1.41 | 
